Measurements: patent US8470983B2, “L-sugar colon cleansing agent and uses thereof” (Aptalis Pharma Canada Inc., priority 2009, dated 2013)

Legend:
[1] = parameters: species or system mice, rats, dogs, rabbits, and monkeys; conditions: in vivo
Experimental: (§1) In preclinical studies, there was no metabolism of L-glucose in any mammalian species studied. […] The maximum tolerated dose in rats was determined to be 10% dietary level of L-glucose.

[2] = 90-day dietary study of L-glucose; assay type: in vivo
Experimental: as §1

[3] = Clinical studies of L-glucose absorption, elimination and tolerability; assay type: in vivo, human
[4] = Comparative Example 1: multicenter, double-blind, dose-range-finding study of L-glucose as colon-cleansing agent before colonoscopy; assay type: in vivo, human; conditions: single doses 12 g, 16 g, 20 g, 24 g
Experimental: A multicenter, double-blind, dose-range-finding study to evaluate the effectiveness and safety of L-glucose as a colon-cleansing agent before colonoscopy was conducted. Doses used in this study were 12 g, 16 g, 20 g, and 24 g. The assessment of the preparations was based on the scale used in Hsu et al., “Meta-analysis and cost comparison of polyethylene glycol lavage versus sodium phosphate for colonoscopy preparation,” Gastrointestinal Endoscopy 48(3):276-282, 1998, wherein small bits of fecal material in the colon were allowed in an “Excellent” score.

[5] = Comparative Example 2: randomized, single-blind study of L-glucose as bowel preparation before colonoscopy (GPA scale); assay type: in vivo, human
Experimental: (§2) Global Preparation Assessment
(§3) Excellent=clean colon or small volume of clear liquid
(§4) Good=moderate to large volume of clear to semiclear liquid
(§5) Fair=some semisolid stool suctioned or washed away
(§6) Poor=semisolid or solid stool unable to be suctioned or washed away
A randomized, single-blind study designed to determine the clinical effectiveness of L-glucose as a bowel preparation before colonoscopy was performed. Three dose regimens were evaluated: 24 g in the evening only, 30 g in the evening only, and 24 g in the evening followed by 12 g in the morning (36 g total). Here, Applicant's GPA scale described herein was used to evaluate the preparations. […] Clinical efficacy (defined as a combination of “excellent” and “good” assessments) for the split-dose schedule was 19/27 (70%), as compared to 7/31 (23%) in the single-dose schedule (p<0.001).
As noted above in the description of Applicant's GPA scale, the criteria for determining whether a preparation was deemed “excellent” or “good” was respectively defined as “clean colon or small volume of clear liquid” or “moderate to large volume of clear to semi-clear liquid.” These criteria are more stringent than the rating system used by Raymer et al. discussed supra since Raymer's “excellent” and “good” ratings were respectively defined as “no more than small bits of adherent fecal fluid” and “small amounts of feces or fluid not interfering with the examination.” Thus, Raymer's “excellent” rating would likely not qualify as even a “good” rating in Applicant's GPA scale.

[6] = Example 3: open-label, 2-site dose-escalating split-dose study of L-glucose before colonoscopy (GPA and RSS); assay type: in vivo, human
Description: Applicants have relied upon a combination of a categorical, 4-point scale and a numerical, segmental scoring system to assess bowel cleansing quality (Balaban et al. “Low volume bowel preparation for colonoscopy: randomized, endoscopist-blinded trial of liquid sodium phosphate versus tablet sodium phosphate,” Am J Gastroenterol 98:827-32, 2003). The basic 4-point scale, known as the Global Preparation Assessment (GPA), is essentially the same as the original scale used in the first randomized controlled trial of PHOSPHO-SODA™ as a bowel cleansing agent published in 1990 by Vanner, et al. (“A randomized prospective trial comparing oral sodium phosphate with standard polyethylene glycol-based lavage solution (Golytely) in the preparation of patients for colonoscopy,” Am J Gastroenterol 85:422-7, 1990). The numerical scoring system, known as the Residual Stool Score (RSS), is a continuously variable, averaged segmental scoring instrument that assesses both the amount and consistency of residual stool before suctioning (a measure of the cathartic activity of the bowel cleansing regimen) as well as the percent of the bowel wall seen after washing and cleansing (a measure of the ultimate endpoint for bowel preparation success). The two scales are shown below.
as §2, §3, §4, §5, §6
This open-label, 2-site study employed a dose-escalating design using 3 split doses of L-glucose (24 g/24 g, 36 g/36 g, and 48 g/48 g). The doses were administered the night before and the morning of a scheduled colonoscopy. The study was conducted in Phase I facilities to control for administration of L-glucose and adherence to the dietary and hydration regimen.
Three dose cohorts of 24 subjects were evenly divided between males and females for each cohort. Subjects who were scheduled to undergo an elective colonoscopy, who met the study entrance criteria, and who gave their consent to participate in the study were enrolled. […] Each subject observed a strict diet and hydration regimen as part of the study medication administration.
The site pharmacist prepared the L-glucose preparation based on the study medication preparation manual provided. Each subject, regardless of dose cohort, received the dose in 8 ounces of water, which was to be consumed within a 10-minute period. Dose cohorts proceeded in a dose-escalating fashion starting with the lowest dose (24 g/24 g) and escalated according to a dose escalation decision tree.
The physician performing the colonoscopy utilized Applicant's GPA scale to evaluate the quality of bowel preparation as before suctioning and washing.
The Residual Stool Score (RSS) described above was also used to assess bowel cleansing in each of the 5 segments of the bowel (rectum, descending colon, transverse colon, ascending colon, and cecum). As noted, assessments included the amount of stool present, the consistency of the stool, and the estimated percentage of the bowel wall visualized in each segment.
For reasons of inadequate bowel preparation, sections of the bowel that were not directly examined during colonoscopy were rated as “poor” on all three measures listed previously.
A total of 24 subjects were enrolled into each of the three dose cohorts. All 72 subjects were included in the intent-to-treat (ITT) and safety populations.

[7] = 24-g single dose; Raymer scale; cited from earlier work
[8] = Dissolution of L-glucose monohydrate versus anhydrous L-glucose in water with consumer-like stirring; assay type: physicochemical; conditions: for Time of stirring until sample fully dissolved: 53 g L-glucose monohydrate in 240 mL doubly distilled water; for Observation of undissolved solid / clumping / Appearance of final solution: 240 mL water
Experimental: The following describes methods for determining the increased dissolution rate of L-glucose monohydrate comprising compositions.
Each sample comprises approximately an equivalent amount of L-glucose on a weight basis. Carefully, to avoid agitation and mixing, doubly distilled water (240 mL) is added to each beaker. In one example, the solution is stirred immediately after addition of water. In a second example, the solutions are allowed to stand for 5 minutes before agitation. The stiffing was conducted in a manner duplicating the way a consumer is expected to stir a sample prior to use. The following Table summaries these experiments which were conducted in duplicate.

[9] = 24 g, 30 g, 24 g + 12 g regimens
[10] = Total of all three dose cohorts, ITT, N = 72
[11] = 5 min. delay before stirring, listed as L- glucose monohydrate^2, monohydrate
[12] = no delay before stirring, listed as L- glucose monohydrate^2, monohydrate

Compound: O=C[C@@H](O)[C@H](O)[C@@H](O)[C@@H](O)CO [L-glucose]
- Effect of food restriction on metabolism [1]: no significant effect
- Major route of elimination [1]: urinary excretion
- Metabolism of L-glucose [1]: no metabolism
- Toxicity from continuous administration ([2]; rat, in vivo): no overt evidence of toxicity
- Maximum tolerated dose ([2]; rats): 10 % dietary level
- Metabolism by colonic bacteria ([3]; breath hydrogen in humans, comparable with in vitro studies): colonic bacteria do not metabolize L-glucose
- Absorption from the intestine ([3]; human, in vivo): moderately absorbed
- Glucose or insulin response after administration ([3]; human, in vivo): No significant glucose or insulin response
- Lower gastrointestinal symptoms (cramping, gas/flatus) ([3]; human, in vivo): occurred in a majority of subjects, but symptoms were mild
- Major routes of elimination ([3]; human, in vivo): fecal and urinary excretion
- Mild upper gastrointestinal symptoms (vomiting, nausea, belching/rifting, bloating) ([3]; human, in vivo): occurred in a minority of subjects
- Acceptability as a colonic cleanser [4]: not acceptable
- Outcome of evening-only dose arms ([5]; 24 g and 30 g evening-only doses): suspended for lack of effectiveness
- Changes in laboratory test results [5, 9]: no clinically significant changes
- Commonly reported adverse events [5, 9]: generally absent or mild
- Overall tolerance to the bowel preparation [5, 9]: good or very good
- Clinical efficacy (combination of excellent and good GPA assessments) ([5]; single-dose schedule (24 g or 30 g evening only), 7/31 subjects): 23%
- Clinical efficacy (combination of excellent and good GPA assessments) ([5]; split-dose schedule: 24 g evening followed by 12 g morning, 19/27 subjects): 70%
- Global Preparation Assessment, Max ([6]; 24 g/24 g cohort, ITT, n = 24): 4.00
- Global Preparation Assessment, Mean (SD) ([6]; 24 g/24 g cohort, ITT, n = 24): 3.29 (0.81)
- Global Preparation Assessment, Median ([6]; 24 g/24 g cohort, ITT, n = 24): 3.50
- Global Preparation Assessment, Min ([6]; 24 g/24 g cohort, ITT, n = 24): 2.00
- Subjects with GPA Fair, number (percentage) ([6]; 24 g/24 g cohort, ITT, n = 24): 5 (20.8)
- Subjects with GPA Good, number (percentage) ([6]; 24 g/24 g cohort, ITT, n = 24): 7 (29.2)
- Subjects with GPA Poor, number (percentage) ([6]; 24 g/24 g cohort, ITT, n = 24): 0 (0.0)
- Global Preparation Assessment, Max ([6]; 36 g/36 g cohort, ITT, n = 24): 4.00
- Global Preparation Assessment, Median ([6]; 36 g/36 g cohort, ITT, n = 24): 4.00
- Global Preparation Assessment, Min ([6]; 36 g/36 g cohort, ITT, n = 24): 1.00
- Subjects with GPA Fair, number (percentage) ([6]; 36 g/36 g cohort, ITT, n = 24): 2 (8.3)
- Subjects with GPA Good, number (percentage) ([6]; 36 g/36 g cohort, ITT, n = 24): 7 (29.2)
- Global Preparation Assessment, Max ([6]; 48 g/48 g cohort, ITT, n = 24): 4.00
- Global Preparation Assessment, Median ([6]; 48 g/48 g cohort, ITT, n = 24): 4.00
- Global Preparation Assessment, Min ([6]; 48 g/48 g cohort, ITT, n = 24): 2.00
- Subjects with GPA Fair, number (percentage) ([6]; 48 g/48 g cohort, ITT, n = 24): 1 (4.2)
- Subjects with GPA Good, number (percentage) ([6]; 48 g/48 g cohort, ITT, n = 24): 1 (4.2)
- Subjects with GPA Poor, number (percentage) ([6]; 48 g/48 g cohort, ITT, n = 24): 0 (0.0)
- Efficacy compared among the three split doses ([6]; 48 g/48 g dose): greatest efficacy
- Time to the first watery bowel movement, compared among doses ([6]; 48 g/48 g dose): shortest time to the first watery bowel movement
- GPA, mean (SD) ([6]; Site 01, all dose cohorts): 3.68 (0.75)
- Subjects who had a complete colonoscopy, number (percentage) ([6]; Site 01, all dose cohorts): 30 (96.8%)
- Subjects with GPA rated poor, number (percentage) ([6]; Site 01, all dose cohorts): 1 (3.2%)
- Subjects with GPA rated excellent ([6]; Site 01, all dose cohorts, 25 subjects): 80.7%
- GPA, mean (SD) ([6]; Site 02, all dose cohorts): 3.41 (0.74)
- Subjects who had a complete colonoscopy, number (percentage) ([6]; Site 02, all dose cohorts): 39 (95.1%)
- Subjects with GPA rated excellent ([6]; Site 02, all dose cohorts, 23 subjects): 56.1%
- Global Preparation Assessment, Max [6, 10]: 4.00
- Global Preparation Assessment, Mean (SD) [6, 10]: 3.53 (0.75)^
- Global Preparation Assessment, Median [6, 10]: 4.00
- Global Preparation Assessment, Min [6, 10]: 1.00
- Subjects with GPA Excellent, number (percentage) [6, 10]: 48 (66.7)
- Subjects with GPA Fair, number (percentage) [6, 10]: 8 (11.1)
- Subjects with GPA Good, number (percentage) [6, 10]: 15 (20.8)
- Subjects with GPA Poor, number (percentage) [6, 10]: 1 (1.4)
- Subjects who had a complete colonoscopy (to the level of the cecum), number (percentage) ([6]; in each dose cohort (24 g/24 g, 36 g/36 g, 48 g/48 g)): 23 (95.8%)
- Subjects with colonoscopy preparation grade of excellent or good [7]: 80%

Compound: O.O=C[C@@H](O)[C@H](O)[C@@H](O)[C@@H](O)CO [L-glucose monohydrate]
- Time of stirring until sample fully dissolved ([8]; 5 min. delay before stirring, listed as L- glucose monohydrate^1, monohydrate): Sample fully dissolved after 2.5 min. of stirring.
- Time of stirring until sample fully dissolved [8, 11]: Fully dissolved after 1 min. of stirring. Final
- Time of stirring until sample fully dissolved ([8]; no delay before stirring, listed as L- glucose monohydrate^1, monohydrate): Sample fully dissolved after 2.5 min. of stirring.
- Time of stirring until sample fully dissolved [8, 12]: Fully dissolved after 2 min. of stirring. Final
- Observation of undissolved solid / clumping ([8]; 5 min. delay before stirring): Several clusters of solid at 1 min. Final solution
- Appearance of final solution [8, 11]: solution was clear, colorless and homogeneous
- Observation of undissolved solid / clumping ([8]; no delay before stirring): Several clusters of solid at 1 min. Final solution
- Appearance of final solution [8, 12]: solution was clear, colorless and homogeneous
